Experimental findings from BindingDB's records for doi:10.1021/jm0105833 (Harvard University, 2002) are described below.

Numbered stars: 1 amine (or outer) side, 2 acyl side, 3 side chain; on linkers, the order of the positions; unused ones are H or OH. Square brackets hold non-standard residues; d marks the D form. Peptide text beside a SMILES is read from it. Phe(ψ(S)CH(OH)CH2N)Pro = O=C([C@@H]1CCCN1C[C@H](O)[C@H](Cc1ccccc1)N[*:1])[*:2]; Nle = CCCC[C@H](N)C(=O)O; Orn = NCCC[C@H](N)C(=O)O

One test addresses Prothrombin (Homo sapiens, UniProt P00734). In words: Binding affinity against thrombin.
On to `N=C(N)NCCC[C@H](NC(=O)[C@@H]1CCCN1C(=O)[C@@H](N)Cc1ccccc1)C(=O)O` [5-amino(imino)methylamino-2-[1-[2-amino-3-phenyl-(2S)-propanoyl]-(5S)-dihydro-1H-5-pyrrolylcarboxamido]-(2S)-pentanoic acid], for which the Kd is 0.575 µM.

In the next test the target is Human immunodeficiency virus type 1 protease (Human immunodeficiency virus 1, UniProt Q72874). The test can be described thus: Affinity for HIV Protease.
In turn, `CCCC[C@H](NC(=O)[C@H](CCCC)NC(=O)[C@@H](NC(=O)[C@@H](NC(C)=O)[C@@H](C)O)[C@@H](C)CC)C(=O)N[C@@H](CCCN)C(=O)N[C@@H](CCCN=C(N)N)C(N)=O` (Ac-TI[Nle][Nle][Orn]R-NH2) registered a Kd of 776 nM. Still for that read-out and setting: the result for `CC(C)[C@H](NC(=O)N(C)Cc1ccccn1)C(=O)N[C@@H](Cc1ccccc1)[C@@H](O)[C@H](O)[C@H](Cc1ccccc1)NC(=O)[C@@H](NC(=O)N(C)Cc1ccccn1)C(C)C` [(2S)-N-[(2S,3R,4R,5S)-3,4-dihydroxy-5-[(2S)-3-methyl-2-{[methyl(pyridin-2-ylmethyl)carbamoyl]amino}butanamido]-1,6-diphenylhexan-2-yl]-3-methyl-2-{[methyl(pyridin-2-ylmethyl)carbamoyl]amino}butanamide] reads 0.977 nM; that for `CC(C)[C@H](NC(=O)N(C)Cc1ccccn1)C(=O)N[C@@H](Cc1ccccc1)C[C@@H](O)[C@H](Cc1ccccc1)NC(=O)[C@@H](NC(=O)N(C)Cc1ccccn1)C(C)C` [(2S)-N-[(2S,3R,5S)-3-hydroxy-5-[(2S)-3-methyl-2-{[methyl(pyridin-2-ylmethyl)carbamoyl]amino}butanamido]-1,6-diphenylhexan-2-yl]-3-methyl-2-{[methyl(pyridin-2-ylmethyl)carbamoyl]amino}butanamide], 0.0347 nM. In turn, `C=CO` [E1203] showed a Kd of 3.9 nM. On the same count and under the same terms, the result for `CC[C@H](C)[C@H](NC(=O)[C@@H]1CCCN1C[C@H](O)[C@H](Cc1ccccc1)NC(=O)[C@H](CC(N)=O)NC(=O)[C@H](CC(C)C)NC(=O)[C@H](CO)NC(C)=O)C(=O)N[C@H](C(=O)OC)C(C)C` (Ac-SLN[Phe(ψ(S)CH(OH)CH2N)Pro]IV-OMe) reads 0.234 nM; that for `O=C(N[C@H]1c2ccccc2C[C@H]1O)[C@H](Cc1ccccc1)CC(O)C[C@@H](Cc1ccccc1)C(=O)N[C@H]1c2ccccc2C[C@H]1O` [L-700417], 0.708 nM; that for `CC1(C)S[C@H]([C@H](NC(=O)Cc2ccccc2)C(=O)NCc2ccccc2)N[C@H]1C(=O)N[C@@H](CO)Cc1ccccc1` [GR-126045], 7.9 nM. Take `CC1(C)SC(C(NC(=O)Cc2ccccc2)C(=O)NCc2ccccc2)NC1C(=O)NC(Cc1ccccc1)C(O)CC(=O)NCC1=NC2C=CC=CC2=N1` (stereo unspecified) [GR-137615]: the Kd stood at 0.204 nM. The compound `CC(C)CN(C[C@@H](O)[C@H](Cc1ccccc1)NC(=O)O[C@H]1CCOC1)S(=O)(=O)c1ccc(N)cc1` [VX-478] gave a Kd of 0.589 nM.

`CC(C)[C@H](NC(=O)N(C)Cc1ccccn1)C(=O)N[C@@H](Cc1ccccc1)[C@H](O)[C@H](O)[C@H](Cc1ccccc1)NC(=O)[C@@H](NC(=O)N(C)Cc1ccccn1)C(C)C` [(2S)-N-[(2S,3R,4S,5S)-3,4-dihydroxy-5-[(2S)-3-methyl-2-{[methyl(pyridin-2-ylmethyl)carbamoyl]amino}butanamido]-1,6-diphenylhexan-2-yl]-3-methyl-2-{[methyl(pyridin-2-ylmethyl)carbamoyl]amino}butanamide]: the Kd stood at 0.0832 nM.

`CC(C)[C@H](NC(=O)N(C)Cc1ccccn1)C(=O)N[C@@H](Cc1ccccc1)[C@H](O)[C@@H](O)[C@H](Cc1ccccc1)NC(=O)[C@@H](NC(=O)N(C)Cc1ccccn1)C(C)C` [JMC51852 Inhibitor PP] came in with a Kd of 0.0759 nM. On the same count and under the same terms, under `COC(=O)[C@@H](NC(=O)[C@@H](NC(=O)[C@H](C)N1CCC([C@H](C)NC(=O)[C@H](C)N)=C[C@@H](Cc2ccccc2)C1)C(C)C)C(C)C` [SB-203238] stands 427 nM; under `O=C1N(Cc2ccc3ccccc3c2)[C@H](Cc2ccccc2)[C@H](O)[C@@H](O)[C@@H](Cc2ccccc2)N1Cc1ccc2ccccc2c1`, 0.302 nM.

The target of another test is T1, Fatty acid-binding protein, intestinal (Homo sapiens, UniProt P12104).
T1 sequence (P12104 whole entry): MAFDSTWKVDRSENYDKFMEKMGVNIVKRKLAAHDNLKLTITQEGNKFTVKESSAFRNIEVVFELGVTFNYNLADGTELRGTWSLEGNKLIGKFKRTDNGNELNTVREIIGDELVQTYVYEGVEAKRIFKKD
The test can be described thus: Binding affinity against Fatty acid-binding protein.
As for `CCCCCCCCCCCCCCCC(=O)O`, the equilibrium dissociation constant (Kd) is 3.72 µM.

The target in the next test is T2, Thermolysin (Bacillus thermoproteolyticus, UniProt P00800).
T2 sequence (P00800 whole entry): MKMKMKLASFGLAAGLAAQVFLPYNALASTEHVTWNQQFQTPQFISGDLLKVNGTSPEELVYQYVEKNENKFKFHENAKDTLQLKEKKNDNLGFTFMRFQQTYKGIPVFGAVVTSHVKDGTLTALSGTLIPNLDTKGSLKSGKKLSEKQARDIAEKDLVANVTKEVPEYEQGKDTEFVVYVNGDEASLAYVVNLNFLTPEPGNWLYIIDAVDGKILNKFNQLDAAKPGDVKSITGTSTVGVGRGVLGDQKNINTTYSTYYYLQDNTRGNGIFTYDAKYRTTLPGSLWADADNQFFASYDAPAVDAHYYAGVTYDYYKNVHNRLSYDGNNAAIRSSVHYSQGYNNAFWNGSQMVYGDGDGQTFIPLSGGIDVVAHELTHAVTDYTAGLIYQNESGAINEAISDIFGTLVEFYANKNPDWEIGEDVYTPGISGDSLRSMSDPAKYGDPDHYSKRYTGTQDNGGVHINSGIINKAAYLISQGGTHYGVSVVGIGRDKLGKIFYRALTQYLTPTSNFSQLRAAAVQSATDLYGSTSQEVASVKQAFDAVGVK
The test can be described thus: Binding affinity against Thermolysin.
`CC(C)C[C@H](NP(=O)(O)O[C@@H]1O[C@@H](C)[C@H](O)[C@@H](O)[C@H]1O)C(=O)N[C@@H](Cc1c[nH]c2ccccc12)C(=O)O` [(S)-2-{(R)-2-[Hydroxy-((2R,3R,4R,5R,6S)-3,4,5-trihydroxy-6-methyl-tetrahydro-pyran-2-yloxy)-phosphorylamino]-4-methyl-pentanoylamino}-3-(1H-indol-3-yl)-propionic acid] came in with a Kd of 0.028 µM. On the same count and under the same terms, under `CC(C)C[C@H](N)C(=O)NO` [(S)-2-Amino-4-methyl-pentanoic acid hydroxyamide] stands 191 µM. On the same count and under the same terms, the result for `CC(C)[C@H](N)C(=O)N[C@@H](Cc1c[nH]c2ccccc12)C(=O)O` [Val-Trp] (H-Val-Trp-OH) reads 1.23 µM; that for `O=[N+]([O-])Nc1ccccc1` [Nitroanilide], 0.427 µM. Still for that read-out and setting: under `CC(C)C[C@H](NP(=O)(O)O)C(N)=O` [(P-Leu-NH2) (1-Carbamoyl-3-methyl-butyl)-phosphoramidic acid] stands 1.29 µM; under `CC(C)C[C@H](NC(CCc1ccccc1)C(=O)O)C(=O)N[C@@H](Cc1c[nH]c2ccccc12)C(=O)O` (stereo partly specified), 0.074 µM.

The target in a further test is Serine protease 1 (Homo sapiens, UniProt P07477). The test can be described thus: Binding affinity against trypsin.
Serine protease 1, sequence (P07477 whole entry): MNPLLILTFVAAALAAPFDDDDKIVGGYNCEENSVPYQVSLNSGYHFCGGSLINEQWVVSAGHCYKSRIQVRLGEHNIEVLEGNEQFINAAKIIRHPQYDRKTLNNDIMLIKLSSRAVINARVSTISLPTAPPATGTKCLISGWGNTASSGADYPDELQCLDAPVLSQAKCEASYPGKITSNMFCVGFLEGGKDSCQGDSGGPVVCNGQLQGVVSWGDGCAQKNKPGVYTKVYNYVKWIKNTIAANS
`NCCCCc1ccccc1` [4-Phenyl-butylamine] had a dissociation constant Kd of 20000 µM.

The next test deals with Purine nucleoside phosphorylase (Homo sapiens) (UniProt P00491). The test can be described thus: Binding affinity against Purine Nucleoside Phosphorylase.
Purine nucleoside phosphorylase (Homo sapiens), sequence (P00491 whole entry, looked up): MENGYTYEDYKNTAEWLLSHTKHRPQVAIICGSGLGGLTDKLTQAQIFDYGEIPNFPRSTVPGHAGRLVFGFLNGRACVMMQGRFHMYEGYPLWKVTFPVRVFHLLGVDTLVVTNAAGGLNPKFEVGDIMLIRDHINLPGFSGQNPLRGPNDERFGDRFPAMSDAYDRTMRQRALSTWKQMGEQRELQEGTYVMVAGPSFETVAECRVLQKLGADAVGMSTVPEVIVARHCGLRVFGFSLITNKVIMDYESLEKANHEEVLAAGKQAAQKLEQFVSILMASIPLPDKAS
Consider `O=P(O)(O)OP(=O)(O)OC[C@H]1O[C@@H](n2cnc3cncnc32)[C@H](O)[C@@H]1O`, for which binding was put at a Kd of 0.603 µM. Still for that read-out and setting: under `O=P(O)(O)OP(=O)(O)OP(=O)(O)OP(=O)(O)OC[C@H]1O[C@@H](n2cnc3cncnc32)[C@H](O)[C@@H]1O` stands 1.41 µM. The same measure, in the same setting: the result for `O=P(O)(O)OP(=O)(O)OP(=O)(O)OP(=O)(O)OP(=O)(O)OC[C@H]1O[C@@H](n2cnc3cncnc32)[C@H](O)[C@@H]1O` reads 1.1 µM.

The next test addresses T3, Mast cell carboxypeptidase A (Homo sapiens, UniProt P15088).
T3 sequence (P15088 whole entry): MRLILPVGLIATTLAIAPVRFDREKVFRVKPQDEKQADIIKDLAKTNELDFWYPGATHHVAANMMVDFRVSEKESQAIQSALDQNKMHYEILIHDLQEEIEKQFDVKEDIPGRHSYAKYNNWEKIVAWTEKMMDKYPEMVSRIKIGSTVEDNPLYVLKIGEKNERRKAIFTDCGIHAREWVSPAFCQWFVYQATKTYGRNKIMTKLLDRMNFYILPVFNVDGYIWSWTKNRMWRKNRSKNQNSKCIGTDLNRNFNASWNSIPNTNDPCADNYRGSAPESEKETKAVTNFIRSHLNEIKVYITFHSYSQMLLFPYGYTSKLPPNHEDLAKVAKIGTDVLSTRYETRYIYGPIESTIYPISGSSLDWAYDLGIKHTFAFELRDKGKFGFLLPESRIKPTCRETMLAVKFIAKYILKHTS
In words: Binding affinity against Carboxypeptidase A.
In turn, `NCCCC[C@H](NC(=O)CN)C(=O)O` [(S)-6-Amino-2-(2-amino-acetylamino)-hexanoic acid] (H-Gly-Lys-OH) yielded a Kd of 129 µM.
